Laboratory results published in patent US7691416B2, “Methods of treating vascular disease” (priority 2002, dated 2010).

Tested on: intimal hyperplasia after balloon injury of the carotid artery
Test: Balloon injury model of the carotid artery
Format: in vivo, rat
Details: CO 250 ppm for one hour prior to balloon injury; 14 days after injury; n=8-10
Source text: Animals. Male (250-350 g) Brown Norway rats (RT1^n) were used as aortic graft donors and male (250-350 g) Lewis rats (RT11) as recipients. Dawley (400-450 g) rats were used in the balloon injury model. Adult male C57BL/6, C57/S129, p21^−/− and p53^−/− null mice were purchased from Jackson Laboratory (Bar Harbor, Me.). mkk3^(−/−) null mice were generated as described Lu et al. (EMBO. 18:1845-1857 (1999)). The inos^−/− and enos^−/− mice were bred at the University of Pittsburgh. Aortic transplant model. Aortic transplantation was performed as described in Shimizu et al. (Nat. Med. 7:738-741 (2001)). Briefly, 3 to 4 cm of descending aorta was harvested from the donor and implanted between the renal arteries and the aortic bifurcation of the recipient. Both edges of the native abdominal aorta were ligated. Balloon injury model. Balloon angioplasty was carried out as described in Murakami et al. (Atherosclerosis 157:361-368 (2001)). […] [^3H]thymidine incorporation was measured by scintillation spectroscopy and presented as mean counts/min/well. […] Areas from eight to ten captured images were calculated using digital imaging software as number of pixels corresponding to those areas. Twenty-four to forty-eight sections from each group were statistically analyzed with SPSS software version 10. […]

[C-]#[O+] [CO, carbon monoxide]
Intimal hyperplasia, suppression compared to control animals exposed to air: 74±8%
